Assays:
Assay type in all cases: biochemical
[1] = molecular target: T1, JAK1 (Homo sapiens, UniProt P23458); assay: JAK1 inhibition (Table 4); conditions: read-out: JAK1 Ki
T1 construct: made in house; host or cells: SF9 insect cells (baculovirus)

[2] = molecular target: T2, JAK2 (Homo sapiens, UniProt O60674); assay: JAK2 inhibition (Table 4); conditions: read-out: JAK2 Ki
T2 construct: made in house; host or cells: SF9 insect cells (baculovirus)

[3] = molecular target: T3, JAK3 (Homo sapiens, UniProt P52333); assay: JAK3 inhibition (Table 4); conditions: read-out: JAK3 Ki
T3 construct: made in house; host or cells: SF9 insect cells (baculovirus)
T3 sequence (P52333 783-1124): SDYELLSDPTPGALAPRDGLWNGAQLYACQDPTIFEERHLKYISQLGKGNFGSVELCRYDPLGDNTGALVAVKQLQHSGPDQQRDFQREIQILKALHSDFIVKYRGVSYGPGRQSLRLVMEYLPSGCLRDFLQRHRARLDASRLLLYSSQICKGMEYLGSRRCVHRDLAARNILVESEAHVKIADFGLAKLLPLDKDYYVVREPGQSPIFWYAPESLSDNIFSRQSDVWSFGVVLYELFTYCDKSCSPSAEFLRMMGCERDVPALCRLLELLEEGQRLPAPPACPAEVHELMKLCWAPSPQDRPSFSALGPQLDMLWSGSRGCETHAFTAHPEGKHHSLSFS

[4] = molecular target: T4, TYK2 (Homo sapiens, UniProt P29597); assay: TYK2 inhibition (Table 4)
T4 construct: made in house; host or cells: SF9 insect cells (baculovirus)
T4 sequence (P29597 873-1187): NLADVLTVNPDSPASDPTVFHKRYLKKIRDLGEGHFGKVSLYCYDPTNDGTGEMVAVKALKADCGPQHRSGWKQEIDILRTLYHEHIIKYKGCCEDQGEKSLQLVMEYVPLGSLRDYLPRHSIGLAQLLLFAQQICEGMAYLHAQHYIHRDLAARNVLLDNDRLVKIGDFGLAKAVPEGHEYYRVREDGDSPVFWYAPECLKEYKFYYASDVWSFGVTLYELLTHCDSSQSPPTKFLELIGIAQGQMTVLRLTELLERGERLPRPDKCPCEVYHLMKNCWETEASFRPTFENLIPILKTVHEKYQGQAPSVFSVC

T2 sequence (O60674 812-1132): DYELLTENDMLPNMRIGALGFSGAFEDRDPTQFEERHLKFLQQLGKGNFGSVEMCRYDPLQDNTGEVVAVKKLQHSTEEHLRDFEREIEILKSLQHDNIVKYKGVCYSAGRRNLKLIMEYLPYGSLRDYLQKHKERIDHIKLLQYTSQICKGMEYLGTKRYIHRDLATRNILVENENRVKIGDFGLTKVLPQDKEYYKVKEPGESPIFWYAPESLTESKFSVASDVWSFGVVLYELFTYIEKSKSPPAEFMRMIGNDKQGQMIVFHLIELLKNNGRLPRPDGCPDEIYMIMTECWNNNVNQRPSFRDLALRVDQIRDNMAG
T1 sequence (P23458 852-1154): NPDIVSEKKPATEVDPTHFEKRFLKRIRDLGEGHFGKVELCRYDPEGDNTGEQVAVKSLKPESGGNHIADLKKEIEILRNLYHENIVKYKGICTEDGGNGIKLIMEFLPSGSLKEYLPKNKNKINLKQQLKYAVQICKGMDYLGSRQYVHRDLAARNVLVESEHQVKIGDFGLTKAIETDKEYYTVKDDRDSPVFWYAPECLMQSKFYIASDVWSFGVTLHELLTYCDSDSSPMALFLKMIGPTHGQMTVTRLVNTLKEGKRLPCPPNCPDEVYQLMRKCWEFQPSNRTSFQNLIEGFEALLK

| Ki [1] [nM] | Ki [2] [nM] | Ki [3] [nM] | Ki [4] [nM] | Structure (SMILES) |
| --- | --- | --- | --- | --- |
| 79.8 | 403 | 334 | 215 | CC(O)c1nc2cnc3[nH]ccc3c2n1C1CC2CCC1O2 (single isomer, unassigned) [Example 936, (endo)-1-[1-(7-Oxa-bicyclo[2.2.1]hept-2-yl)-1,6-dihydro-1,3,5,6-tetraaza-as-indacen-2-yl]-ethanol] |
| 80.5 | 174 | 73.3 | 144 | CC(O)c1nc2cnc3[nH]ccc3c2n1C1CC2CCC1O2 (single isomer, unassigned) [Example 937, Endo-1-[1-(7-Oxa-bicyclo[2.2.1]hept-2-yl)-1,6-dihydro-1,3,5,6-tetraaza-as-indacen-2-yl]-ethanol] |
| 0.68 | 18.1 | 5.58 | 7.2 | C[C@@H](O)c1nc2cnc3[nH]ccc3c2n1C1CCNCC1(F)F (single isomer, unassigned) [Example 939] |
| 177 | 518 | 913 | 1510 | c1cc2c(ncc3ncn([C@@H]4CCCNC4)c32)[nH]1 [Example 2, (R)-1-Piperidin-3-yl-1,6-dihydro-1,2,3,5,6-tetraaza-as-indacene] |
| 348 | 191 | 905 | 1640 | CC(C)(C)OC(=O)N1CC(n2cnc3cnc4[nH]ccc4c32)C1 [Example 3, 3-(6H-1,2,3,5,6-Tetraaza-as-indacen-1-yl)-azetidine-1-carboxylic acid tert-butyl ester] |
| 11.9 | 21.4 | 373 | 134 | O=C(c1ccccc1)N1CCC[C@@H](n2cnc3cnc4[nH]ccc4c32)C1 [Example 6, Phenyl-[(R)-3-(6H-1,2,3,5,6-tetraaza-as-indacen-1-yl)-piperidin-1-yl]-methanone] |
| 8.6 | 13.3 | 283 | 64.6 | O=C(Cc1ccccc1)N1CCC(n2cnc3cnc4[nH]ccc4c32)CC1 [Example 7, 2-Phenyl-1-[4-(6H-1,2,3,5,6-tetraaza-as-indacen-1-yl)-piperidin-1-yl]-ethanone] |
| 12.9 | 43.8 | 68.9 | 134 | c1cc2c(ncc3ncn([C@@H]4CCCN(Cc5cocn5)C4)c32)[nH]1 [Example 8, 1-((R)-1-Oxazol-4-ylmethyl-piperidin-3-yl)-1,6-dihydro-1,2,3,5,6-tetraaza-as-indacene] |
| 7.48 | 6.5 | 16.6 | 35.4 | CS(=O)(=O)N1CCC[C@@H](n2cnc3cnc4[nH]ccc4c32)C1 [Example 9, 1-((R)-1-Methanesulfonyl-piperidin-3-yl)-1,6-dihydro-1,2,3,5,6-tetraaza-as-indacene] |
| 12.8 | 21.7 | 21.2 | 88.5 | N#CCCN1CCC[C@@H](n2cnc3cnc4[nH]ccc4c32)C1 [Example 10, 3-[(R)-3-(6H-1,2,3,5,6-Tetraaza-as-indacen-1-yl)-piperidin-1-yl]-propionitrile] |
| 17.3 | 37.4 | 94.5 | 176 | NC(=O)CN1CCC[C@@H](n2cnc3cnc4[nH]ccc4c32)C1 [Example 11, 2-[(R)-3-(6H-1,2,3,5,6-Tetraaza-as-indacen-1-yl)-piperidin-1-yl]acetamide] |
| 31 | 35.7 | 17.2 | 170 | c1ccc(N2CCC[C@@H](n3cnc4cnc5[nH]ccc5c43)C2)cc1 [Example 12, 1-((R)-1-Phenyl-piperidin-3-yl)-1,6-dihydro-1,2,3,5,6-tetraaza-as-indacene] |
| 11.4 | 13.6 | 26.5 | 85.6 | c1cc(N2CCC[C@@H](n3cnc4cnc5[nH]ccc5c43)C2)ncn1 [Example 14, 1-((R)-1-Pyrimidin-4-yl-piperidin-3-yl)-1,6-dihydro-1,2,3,5,6-tetraaza-as-indacene] |

From patent US8461328B2, “Tricyclic heterocyclic compounds, compositions and methods of use thereof” (Genentech, Inc., priority 2010, dated 2013)
